Experimental data taken from US20100047284A1 (priority 2006, published 2010).
Entries after “also recorded” stand apart in the source; their conditions may differ.

Tests used:
radial artery rings = assay type: cell-based, Human
radial artery tissue = experiment: spontaneous contractility of radial artery tissue; assay type: cell-based, Human; settings: radial artery tissue (FIG. 11A)
mammary artery samples = assay type: cell-based, Human
vascular smooth muscle = assay type: cell-based, Human
[1] = tested on: endothelial mediated relaxation

Row | Molecule | effect on angiotensin II-induced contraction (radial artery rings) | effect on spontaneous contraction (radial artery tissue) | concentration most effective at inhibiting angiotensin II induced contraction (mammary artery samples) [µM] | concentration most effective at inhibiting adrenaline-mediated contraction (radial artery rings) [µg/mL] | effect on dose response curves to adrenaline, angiotensin II or PGF2α (radial artery rings) | effect on subsequent vasoconstrictor responses (in words) (radial artery rings) | incubation time at which toxin is effective in inhibiting adrenaline-induced vasoconstriction (radial artery rings) [min] | inhibition of contraction, depending on the vasoconstrictor (radial artery rings) | optimal concentration most effective at reducing contractile activity (vascular smooth muscle) | endothelial mediated relaxation after incubation with toxin [1]
1 | CC(COc1ccccc1)N(CCCl)Cc1ccccc1 (stereo not shown) [phenoxybenzamine, Phenoxybenzamine, reference compound] | no inhibitory effect | no effect; also recorded: lack of effect |  |  |  |  |  |  |  | 
2 | cholera toxin |  |  | 0.57 | 25 | inhibited the contraction | inhibit the maximal contraction force produced and the sensitivity | 30 | 15-50% | about 0.6 μM; also recorded: about 51 μg/ml | no impairment
3 | pertussis toxin |  |  |  | 50 | inhibited the contraction | inhibit the maximal contraction force produced and the sensitivity | 60 | 20-60% |  | no impairment
